Test results reported in PubChem BioAssay (NCI).
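GI50 = concentration required for 50% inhibition of growth. TGI denotes the concentration required for complete inhibition of growth.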

Key:
Assay in all cases: growth of human tumour cells (NCI), 384-well format
[1] = tested on: 786-0 renal
[2] = tested on: A498 renal
[3] = tested on: A549 NSCLC
[4] = tested on: ACHN renal
[5] = tested on: BT-549 breast
[6] = tested on: CAKI-1 renal
[7] = tested on: CCRF-CEM leukemia
[8] = tested on: COLO 205 colon
[9] = tested on: DU-145 prostate
[10] = tested on: EKVX NSCLC
[11] = tested on: HCC-2998 colon
[12] = tested on: HCT-116 colon
[13] = tested on: HCT-15 colon
[14] = tested on: HL-60(TB) leukemia
[15] = tested on: HOP-62 NSCLC
[16] = tested on: HOP-92 NSCLC
[17] = tested on: HS 578T breast
[18] = tested on: HT29 colon
[19] = tested on: IGROV1 ovarian
[20] = tested on: K-562 leukemia
[21] = tested on: KM12 colon
[22] = tested on: LOX IMVI melanoma
[23] = tested on: M14 melanoma
[24] = tested on: MALME-3M melanoma
[25] = tested on: MCF7 breast
[26] = tested on: MDA-MB-231 breast
[27] = tested on: MDA-MB-435 melanoma
[28] = tested on: MDA-MB-468 breast
[29] = tested on: MOLT-4 leukemia
[30] = tested on: NCI-H226 lung
[31] = tested on: NCI-H23 lung
[32] = tested on: NCI-H322M lung
[33] = tested on: NCI-H460 NSCLC
[34] = tested on: NCI-H522 lung
[35] = tested on: NCI/ADR-RES ovarian
[36] = tested on: OVCAR-3 ovarian
[37] = tested on: OVCAR-4 ovarian
[38] = tested on: OVCAR-8 ovarian
[39] = tested on: PC-3 prostate
[40] = tested on: RPMI-8226 leukemia
[41] = tested on: RXF 393 renal
[42] = tested on: SF-268 CNS
[43] = tested on: SF-295 CNS
[44] = tested on: SF-539 CNS
[45] = tested on: SK-MEL-28 melanoma
[46] = tested on: SK-MEL-5 melanoma
[47] = tested on: SK-OV-3 ovarian
[48] = tested on: SN12C renal
[49] = tested on: SNB-19 CNS
[50] = tested on: SNB-75 CNS
[51] = tested on: SR leukemia
[52] = tested on: SW-620 colon
[53] = tested on: T-47D breast
[54] = tested on: TK-10 renal
[55] = tested on: U251 glioblastoma
[56] = tested on: UACC-257 melanoma
[57] = tested on: UACC-62 melanoma
[58] = tested on: UO-31 renal

C[C@H](Nc1ncnc2nc[nH]c12)c1cc2ccc(F)cc2nc1-c1ccccn1
GI50 [1]: 30.4 µM
TGI [1]: > 100 µM
GI50 [2]: 17.5 µM
TGI [2]: > 100 µM
GI50 [3]: > 100 µM
TGI [3]: > 100 µM
GI50 [4]: 96.1 µM
TGI [4]: > 100 µM
GI50 [5]: 21.1 µM
TGI [5]: > 100 µM
GI50 [6]: 8.35 µM
TGI [6]: 54.1 µM
GI50 [7]: 11 µM
TGI [7]: > 100 µM
GI50 [8]: > 100 µM
TGI [8]: > 100 µM
GI50 [9]: > 100 µM
TGI [9]: > 100 µM
GI50 [10]: 37.6 µM
TGI [10]: > 100 µM
GI50 [11]: > 100 µM
TGI [11]: > 100 µM
GI50 [12]: > 100 µM
TGI [12]: > 100 µM
GI50 [13]: > 100 µM
TGI [13]: > 100 µM
GI50 [14]: 3.53 µM
TGI [14]: 24.3 µM
GI50 [15]: > 100 µM
TGI [15]: > 100 µM
GI50 [16]: 12.7 µM
TGI [16]: > 100 µM
GI50 [17]: 24.7 µM
TGI [17]: > 100 µM
GI50 [18]: > 100 µM
TGI [18]: > 100 µM
GI50 [19]: 21.2 µM
TGI [19]: 93.2 µM
GI50 [20]: > 100 µM
TGI [20]: > 100 µM
GI50 [21]: > 100 µM
TGI [21]: > 100 µM
GI50 [22]: > 100 µM
TGI [22]: > 100 µM
GI50 [23]: > 100 µM
TGI [23]: > 100 µM
GI50 [24]: 23.6 µM
TGI [24]: > 100 µM
GI50 [25]: 21 µM
TGI [25]: > 100 µM
GI50 [26]: 53 µM
TGI [26]: > 100 µM
GI50 [27]: > 100 µM
TGI [27]: > 100 µM
GI50 [28]: 59.2 µM
TGI [28]: > 100 µM
GI50 [29]: 23.3 µM
TGI [29]: > 100 µM
GI50 [30]: 35.7 µM
TGI [30]: > 100 µM
GI50 [31]: > 100 µM
TGI [31]: > 100 µM
GI50 [32]: > 100 µM
TGI [32]: > 100 µM
GI50 [33]: > 100 µM
TGI [33]: > 100 µM
GI50 [34]: 67.4 µM
TGI [34]: > 100 µM
GI50 [35]: > 100 µM
TGI [35]: > 100 µM
GI50 [36]: 34.7 µM
TGI [36]: > 100 µM
GI50 [37]: > 100 µM
TGI [37]: > 100 µM
GI50 [38]: > 100 µM
TGI [38]: > 100 µM
GI50 [39]: 18.2 µM
TGI [39]: > 100 µM
GI50 [40]: 22.4 µM
TGI [40]: > 100 µM
GI50 [41]: 12.6 µM
TGI [41]: > 100 µM
GI50 [42]: > 100 µM
TGI [42]: > 100 µM
GI50 [43]: 29.4 µM
TGI [43]: > 100 µM
GI50 [44]: > 100 µM
TGI [44]: > 100 µM
GI50 [45]: > 100 µM
TGI [45]: > 100 µM
GI50 [46]: > 100 µM
TGI [46]: > 100 µM
GI50 [47]: 64.3 µM
TGI [47]: > 100 µM
GI50 [48]: 12.4 µM
TGI [48]: > 100 µM
GI50 [49]: > 100 µM
TGI [49]: > 100 µM
GI50 [50]: 24.3 µM
TGI [50]: > 100 µM
GI50 [51]: 1.06 µM
TGI [51]: 8.99 µM
GI50 [52]: > 100 µM
TGI [52]: > 100 µM
GI50 [53]: 31.2 µM
TGI [53]: > 100 µM
GI50 [54]: > 100 µM
TGI [54]: > 100 µM
GI50 [55]: > 100 µM
TGI [55]: > 100 µM
GI50 [56]: > 100 µM
TGI [56]: > 100 µM
GI50 [57]: 29.2 µM
TGI [57]: > 100 µM
GI50 [58]: 49.9 µM
TGI [58]: > 100 µM
